Data: paper PMC4529466, “Intradermal insulin infusion achieves faster insulin action than subcutaneous infusion for 3-day wear” (Drug Delivery and Translational Research, 2015)

System: blood glucose
Assay: Postprandial blood glucose pharmacodynamics after meal bolus, 3-day ID vs SC infusion
Type: in vivo, human (T1DM patients)
Conditions: ID; for BGavg0–1 / BGmax0–1 / ΔAUC-BG0–1 / ΔBGmax0–1 / BGavg0–1.5 / BGmax0–1.5 / ΔAUC-BG0–1.5 / ΔBGmax0–1.5 / BGavg0–2 / BGmax0–2 / ΔAUC-BG0–2 / ΔBGmax0–2 / BGavg0–4 / BGmax0–4 / ΔAUC-BG0–4 / ΔBGmax0–4 / BG1 / ΔBG1 / BG1.5 / ΔBG1.5 / BG2 / ΔBG2 / BG4 / ΔBG4: mean ± SD; for BG1 / ΔBG1: at 1 h; for BG1.5 / ΔBG1.5: at 1.5 h; for BG2 / ΔBG2: at 2 h; for BG4 / ΔBG4: at 4 h
Source text: This was a single center, open-label, two-period crossover study, randomized by infusion order, in T1DM patients on continuous subcutaneous insulin infusion (CSII). The protocol was approved by an independent ethics committee (Ethikkommission der Ärztekammer Nordrhein, Düsseldorf, Germany), appropriate regulatory bodies (German Federal Institute for Drugs and Medical Devices (BfArM)), and conducted in compliance with good clinical practice (GCP), the Declaration of Helsinki, and applicable regulatory requirements.
The study was completed over a multi-week period consisting of three study visits: a screening visit (V1) and two interventional visits (V2 and V3). After establishing eligibility and enrollment, patients received treatment during two interventional visits: one SC and one ID basal/bolus infusion of insulin aspart (NovoRapid® U-100, Novo Nordisk, Copenhagen, Denmark) administered over 3 days in a randomized order.
Individual meal bolus doses were determined based on patient self-reported insulin to carbohydrate ratios and insulin sensitivity, historical self-reported insulin usage for meal coverage, and clinician review and adjustment of insulin usage during the in-clinic BG stabilization period the evening prior to the first morning meal. Basal insulin infusion rates were initiated based on the patient’s known daily delivery profile and could be adjusted by the clinician to maintain levels within 70–160 mg/dL according to a predetermined sliding scale and hourly changes in glycemia. A continuous glucose monitor (Seven Plus®, DexCom Inc., San Diego, CA) calibrated per manufacturer’s recommendations was applied to continuously monitor glycemia as a safety measure, in addition to periodic blood sampling for BG determination.
After maintaining targeted blood glucose range during the preceding night, bolus insulin doses were administered via the respective infusion catheter prior to standardized breakfast and lunch test meals on each of the three treatment days. Each meal insulin bolus was calculated based on the patient’s insulin sensitivity and previous hours change in BG per sliding scale then delivered immediately prior to breakfast (t = 0 min) and lunch (t = 360 min) consumption. Breakfast was a high glycemic index (60 g carbohydrates) solid meal, and lunch was a mixed meal based on the individual’s calculated daily energy intake and equivalent in caloric composition by day. Breakfast and lunch meals were consumed within 15 min followed by serial blood sampling with BG monitoring for a period of 6 and 4 h, respectively. Patients were asked to remain sedentary for 2 h after meals. Identical study procedures were utilized for the remaining dosing visit days (Fig. 2).
To assess insulin absorption kinetics and glycemic response, blood samples for measurements of insulin aspart and blood glucose in serum were drawn at predefined time points throughout dosing visits. Serial samples for safety BG determination, but not PK analysis, were obtained at a minimum every 2 h. Meal PK/PD analysis samples were acquired immediately pre-bolus and for 4–6 h post-bolus for breakfast and lunch meals, with a higher frequency during the first 2 h to capture insulin and BG peak levels {Post-bolus breakfast time points (min): 0, 10, 15, 20, 25, 30, 35, 40, 45, 50, 55, 60, 65, 70, 80, 90, 120, 150, 180, 210, 240, 300, 330, 360; Post-bolus lunch time points (min): 0, 10, 20, 30, 40, 50, 60, 70, 80, 90, 120, 180, 240, 300}. Sampling times were based on previous clinical study experience for bolus microneedle insulin delivery and had increased sampling frequency in the first 90 min post-delivery to capture the rapid insulin peaks from microneedle ID delivery. Blood samples for evening meal and basal period PK assessment could not be obtained due to daily blood draw volume limits for patient safety. Serum insulin aspart was measured by a third party laboratory (IKFE GmbH, Mainz, Germany) using a validated insulin assay (Invitron ELISA kit). […]

[1] = 0–1 h, Days 1–3 combined, all test meals, n = 150–156
[2] = 0–1 h, across all study days and meals
[3] = 0–1.5 h, Days 1–3 combined, all test meals, n = 150–156
[4] = 0–1.5 h, across all study days and meals
[5] = 0–2 h, Days 1–3 combined, all test meals, n = 150–156
[6] = 0–2 h, across all study days and meals
[7] = 0–4 h, Days 1–3 combined, all test meals, n = 150–156
[8] = Days 1–3 combined, all test meals, n = 150–156

insulin aspart
BGavg0–1 (0–1 h, Day 1, across meals): 135 ± 45.9 mg/dL
BGmax0–1 (0–1 h, Day 1, across meals): 159 ± 53.1 mg/dL
ΔAUC-BG0–1 (0–1 h, Day 1, across meals): 17.2 ± 22.3 mg·h/dL
ΔBGmax0–1 (0–1 h, Day 1, across meals): 41.3 ± 32.1 mg/dL
BGavg0–1 (0–1 h, Day 2, across meals): 138 ± 37.4 mg/dL
BGmax0–1 (0–1 h, Day 2, across meals): 162 ± 43.0 mg/dL
ΔAUC-BG0–1 (0–1 h, Day 2, across meals): 18.7 ± 22.0 mg·h/dL
ΔBGmax0–1 (0–1 h, Day 2, across meals): 43.1 ± 30.2 mg/dL
BGavg0–1 (0–1 h, Day 3, across meals): 136 ± 37.3 mg/dL
BGmax0–1 (0–1 h, Day 3, across meals): 162 ± 41.5 mg/dL
ΔAUC-BG0–1 (0–1 h, Day 3, across meals): 18.5 ± 19.2 mg·h/dL
ΔBGmax0–1 (0–1 h, Day 3, across meals): 44.2 ± 28.1 mg/dL
BGavg0–1 [1]: 136 ± 40.5 mg/dL
BGmax0–1 [1]: 161 ± 46.2 mg/dL
ΔAUC-BG0–1 [1]: 18.1 ± 21.2 mg·h/dL
ΔBGmax0–1 [1]: 42.8 ± 30.1 mg/dL
Intra-subject variability of BGavg [2]: 26.3 %CV
Intra-subject variability of BGmax [2]: 25.2 %CV
BGavg0–1.5 (0–1.5 h, Day 1, across meals): 137 ± 42.1 mg/dL
BGmax0–1.5 (0–1.5 h, Day 1, across meals): 160 ± 46.8 mg/dL
ΔAUC-BG0–1.5 (0–1.5 h, Day 1, across meals): 32.4 ± 41.7 mg·h/dL
ΔBGmax0–1.5 (0–1.5 h, Day 1, across meals): 45.0 ± 34.5 mg/dL
BGavg0–1.5 (0–1.5 h, Day 2, across meals): 144 ± 39.9 mg/dL
BGmax0–1.5 (0–1.5 h, Day 2, across meals): 169 ± 45.6 mg/dL
ΔAUC-BG0–1.5 (0–1.5 h, Day 2, across meals): 36.8 ± 40.8 mg·h/dL
ΔBGmax0–1.5 (0–1.5 h, Day 2, across meals): 49.5 ± 33.5 mg/dL
BGavg0–1.5 (0–1.5 h, Day 3, across meals): 143 ± 40.2 mg/dL
BGmax0–1.5 (0–1.5 h, Day 3, across meals): 172 ± 45.0 mg/dL
ΔAUC-BG0–1.5 (0–1.5 h, Day 3, across meals): 39.3 ± 36.8 mg·h/dL
ΔBGmax0–1.5 (0–1.5 h, Day 3, across meals): 54.8 ± 34.2 mg/dL
BGavg0–1.5 [3]: 141 ± 40.6 mg/dL
BGmax0–1.5 [3]: 167 ± 45.8 mg/dL
ΔAUC-BG0–1.5 [3]: 36.0 ± 39.8 mg·h/dL
ΔBGmax0–1.5 [3]: 49.5 ± 34.1 mg/dL
Intra-subject variability of BGavg [4]: 25.6 %CV
Intra-subject variability of BGmax [4]: 24.5 %CV
BGavg0–2 (0–2 h, Day 1, across meals): 139 ± 43.8 mg/dL
BGmax0–2 (0–2 h, Day 1, across meals): 165 ± 47.8 mg/dL
ΔAUC-BG0–2 (0–2 h, Day 1, across meals): 47.8 ± 63.1 mg·h/dL
ΔBGmax0–2 (0–2 h, Day 1, across meals): 49.4 ± 36.7 mg/dL
BGavg0–2 (0–2 h, Day 2, across meals): 146 ± 41.9 mg/dL
BGmax0–2 (0–2 h, Day 2, across meals): 171 ± 46.5 mg/dL
ΔAUC-BG0–2 (0–2 h, Day 2, across meals): 53.9 ± 61.9 mg·h/dL
ΔBGmax0–2 (0–2 h, Day 2, across meals): 52.2 ± 33.7 mg/dL
BGavg0–2 (0–2 h, Day 3, across meals): 148 ± 41.8 mg/dL
BGmax0–2 (0–2 h, Day 3, across meals): 176 ± 44.9 mg/dL
ΔAUC-BG0–2 (0–2 h, Day 3, across meals): 62.8 ± 56.3 mg·h/dL
ΔBGmax0–2 (0–2 h, Day 3, across meals): 59.5 ± 34.9 mg/dL
BGavg0–2 [5]: 144 ± 42.4 mg/dL
BGmax0–2 [5]: 170 ± 46.4 mg/dL
ΔAUC-BG0–2 [5]: 54.5 ± 60.6 mg·h/dL
ΔBGmax0–2 [5]: 53.5 ± 35.2 mg/dL
Intra-subject variability of BGavg [6]: 25.9 %CV
Intra-subject variability of BGmax [6]: 23.8 %CV
BGavg0–4 (0–4 h, Day 1, across meals): 141 ± 44.0 mg/dL
BGmax0–4 (0–4 h, Day 1, across meals): 178 ± 49.1 mg/dL
ΔAUC-BG0–4 (0–4 h, Day 1, across meals): 105 ± 148 mg·h/dL
ΔBGmax0–4 (0–4 h, Day 1, across meals): 64.0 ± 43.6 mg/dL
BGavg0–4 (0–4 h, Day 2, across meals): 148 ± 41.3 mg/dL
BGmax0–4 (0–4 h, Day 2, across meals): 186 ± 43.2 mg/dL
ΔAUC-BG0–4 (0–4 h, Day 2, across meals): 120 ± 140 mg·h/dL
ΔBGmax0–4 (0–4 h, Day 2, across meals): 69.4 ± 36.8 mg/dL
BGavg0–4 (0–4 h, Day 3, across meals): 156 ± 45.0 mg/dL
BGmax0–4 (0–4 h, Day 3, across meals): 188 ± 49.8 mg/dL
ΔAUC-BG0–4 (0–4 h, Day 3, across meals): 156 ± 140 mg·h/dL
ΔBGmax0–4 (0–4 h, Day 3, across meals): 70.4 ± 42.2 mg/dL
BGavg0–4 [7]: 148 ± 43.6 mg/dL
BGmax0–4 [7]: 184 ± 47.4 mg/dL
ΔAUC-BG0–4 [7]: 126 ± 144 mg·h/dL
ΔBGmax0–4 [7]: 67.8 ± 40.8 mg/dL
Intra-subject variability of BGmax (0–4 h, across all study days and meals): 21.1 %CV
BG1 (Day 1, across meals): 151 ± 56.0 mg/dL
ΔBG1 (Day 1, across meals): 33.3 ± 38.2 mg/dL
BG1 (Day 2, across meals): 155 ± 45.8 mg/dL
ΔBG1 (Day 2, across meals): 35.8 ± 35.4 mg/dL
BG1 (Day 3, across meals): 156 ± 45.2 mg/dL
ΔBG1 (Day 3, across meals): 38.2 ± 32.9 mg/dL
BG1 [8]: 154 ± 49.3 mg/dL
ΔBG1 [8]: 35.6 ± 35.5 mg/dL
BG1.5 (Day 1, across meals): 146 ± 52.2 mg/dL
ΔBG1.5 (Day 1, across meals): 31.0 ± 44.4 mg/dL
BG1.5 (Day 2, across meals): 155 ± 51.4 mg/dL
ΔBG1.5 (Day 2, across meals): 35.8 ± 44.4 mg/dL
BG1.5 (Day 3, across meals): 163 ± 51.3 mg/dL
ΔBG1.5 (Day 3, across meals): 45.7 ± 41.2 mg/dL
BG1.5 [8]: 154 ± 51.8 mg/dL
ΔBG1.5 [8]: 37.2 ± 43.6 mg/dL
BG2 (Day 1, across meals): 145 ± 54.5 mg/dL
ΔBG2 (Day 1, across meals): 30.2 ± 48.5 mg/dL
BG2 (Day 2, across meals): 152 ± 51.9 mg/dL
ΔBG2 (Day 2, across meals): 33.1 ± 46.1 mg/dL
BG2 (Day 3, across meals): 165 ± 50.5 mg/dL
ΔBG2 (Day 3, across meals): 48.0 ± 43.3 mg/dL
BG2 [8]: 154 ± 52.7 mg/dL
ΔBG2 [8]: 36.7 ± 46.5 mg/dL
BG4 (Day 1, across meals): 145 ± 52.1 mg/dL
ΔBG4 (Day 1, across meals): 29.3 ± 54.1 mg/dL
BG4 (Day 2, across meals): 147 ± 55.5 mg/dL
ΔBG4 (Day 2, across meals): 28.0 ± 55.7 mg/dL
BG4 (Day 3, across meals): 160 ± 60.1 mg/dL
ΔBG4 (Day 3, across meals): 43.6 ± 54.8 mg/dL
BG4 [8]: 150 ± 55.9 mg/dL
ΔBG4 [8]: 33.3 ± 54.9 mg/dL
BG at 1 h (p = 0.0121 vs SC): 154
Intra-subject variability of BG (time 1 h, across all study days and meals): 29.1 %CV
Intra-subject variability of BG (time 1.5 h, across all study days and meals): 31.5 %CV
Intra-subject variability of ΔBG (time 2 h, across all study days and meals): 90.2 %CV
